Measured values published in patent US20060148858A1, “1, 2-Azole derivatives with hypoglycemic and hypolipidemic activity” (priority 2002, published 2006).
Where two headings read alike, the source gives them in different places.

Tests used:
KKAY mice = test: Hypoglycemic and hypolipidemic actions in mice (Test Example 1); type: in vivo; conditions: Mus musculus, po, 96 h, 0.005% in powdery diet, four days, non-treated group taken as 100%
Protocol: Test compounds were mixed in a powdery diet (CE-2, Japan Clea) at the concentration of 0.005%, and freely given to KKAY mice (9 to 12 weeks old, 5 mice in a group), a model of obese and non-insulin dependent diabetes (type 2 diabetes), for four days. During this period, water was given freely. Blood was sampled from orbital venous plexus, and glucose and triglyceride levels in plasma separated from blood were determined enzymatically using L type Wako Glu2 (Wako Pure Chemical Industries, Ltd.) or L type Wako TG·H (Wako Pure Chemical Industries, Ltd.), respectively.
In the table, “hypoglycemic action (%)” means the rate of decrease (%) in the blood glucose level of the treated group when the blood glucose level of the non-treated group is taken as 100%. In addition, the “hypolipidemic action (%)” means the rate of decrease (%) in the blood triglyceride level of the treated group when the blood triglyceride level of the non-treated group is taken as 100%.

[1] = rate of decrease in blood glucose level, read-out: Hypoglycemic action (%)
[2] = rate of decrease in blood triglyceride level, read-out: Hypolipidemic action (%)

Row | Structure (SMILES) | inhibition in vivo at 0.005 % in diet (KKAY mice; [1]) [%] | inhibition in vivo at 0.005 % in diet (KKAY mice; [2]) [%] | melting point [°C]
1 | CC(C)c1nn(-c2ccc(C(F)(F)F)cn2)cc1CCCOc1ccccc1CC(=O)O [Example 179, [2-(3-{3-isopropyl-1-[5-(trifluoromethyl)-2-pyridyl]-1H-pyrazol-4-yl}propoxy)phenyl]acetic acid] | 34 | 37 | 132 to 133
2 | COc1cccc(CC(=O)O)c1OCCCCc1cn(-c2ccc(C(F)(F)F)cn2)nc1C(C)C [Example 180, [2-(4-{3-isopropyl-1-[5-(trifluoromethyl)-2-pyridyl]-1H-pyrazol-4-yl}butoxy)-3-methoxyphenyl]acetic acid] | 32 | 36 | 144 to 145
3 | CC(C)c1nn(-c2ccc(C(F)(F)F)cn2)cc1CCCOc1c(F)cccc1CC(=O)O [Example 207, [3-fluoro-2-(3-{3-isopropyl-1-[5-(trifluoromethyl)-2-pyridyl]-1H-pyrazol-4-yl}propoxy)phenyl]acetic acid] | 49 | 72 | 140 to 141
4 | COc1ccc(CCC(=O)O)cc1OCCCc1cn(-c2ccc(C(F)(F)F)cn2)nc1C(C)C [Example 324, 3-[3-(3-{3-isopropyl-1-[5-(trifluoromethyl)-2-pyridinyl]-1H-pyrazol-4-yl}propoxy)-4-methoxyphenyl]propanoic acid] |  |  | 93 to 94
5 | Cn1ncc(CC(=O)O)c1OCCCc1cn(-c2ccc(C(F)(F)F)cn2)nc1C1CCCCC1 [Example 325, [5-(3-{3-cyclohexyl-1-[5-(trifluoromethyl)-2-pyridinyl]-1H-pyrazol-4-yl}propoxy)-1-methyl-1H-pyrazol-4-yl]acetic acid] |  |  | 137 to 138
6 | CCCc1nn(-c2ccc(C(F)(F)F)cn2)cc1CCCOc1c(CC(=O)O)cnn1CC [Example 326, [1-ethyl-5-(3-{3-propyl-1-[5-(trifluoromethyl)-2-pyridinyl]-1H-pyrazol-4-yl}propoxy)-1H-pyrazol-4-yl]acetic acid] |  |  | 125 to 126
7 | Cc1cnn(CC(=O)O)c1OCCCc1cn(-c2ccc(C(F)(F)F)cn2)nc1C(C)C [Example 327, [5-(3-{3-isopropyl-1-[5-(trifluoromethyl)-2-pyridinyl]-1H-pyrazol-4-yl}propoxy)-4-methyl-1H-pyrazol-1-yl]acetic acid] |  |  | 123 to 124
8 | CCc1cnn(CC(=O)O)c1OCCCc1cn(-c2ccc(C(F)(F)F)cn2)nc1C(C)C [Example 328, [4-ethyl-5-(3-{3-isopropyl-1-[5-(trifluoromethyl)-2-pyridinyl]-1H-pyrazol-4-yl}propoxy)-1H-pyrazol-1-yl]acetic acid] |  |  | 111 to 112
9 | CCCc1nn(-c2ccc(C(F)(F)F)cn2)cc1CCCOc1c(C)cnn1CC(=O)O [Example 329, [4-methyl-5-(3-{3-propyl-1-[5-(trifluoromethyl)-2-pyridinyl]-1H-pyrazol-4-yl}propoxy)-1H-pyrazol-1-yl]acetic acid] |  |  | 145 to 146
10 | CCc1cnn(CC(=O)O)c1OCCCc1cn(-c2ccc(C(F)(F)F)cn2)nc1C(CC)CC [Example 330, [4-ethyl-5-(3-{3-(1-ethylpropyl)-1-[5-(trifluoromethyl)-2-pyridinyl]-1H-pyrazol-4-yl}propoxy)-1H-pyrazol-1-yl]acetic acid] |  |  | 124 to 125
11 | CCCc1nn(-c2ccc(C(F)(F)F)cn2)cc1CCCOc1c(CC)cnn1CC(=O)O [Example 331, [4-ethyl-5-(3-{3-propyl-1-[5-(trifluoromethyl)-2-pyridinyl]-1H-pyrazol-4-yl}propoxy)-1H-pyrazol-1-yl]acetic acid] |  |  | 135 to 136
12 | COc1cccc(CC(=O)O)c1OCCCc1cn(-c2ncc(Cl)cc2Cl)nc1C(C)C [Example 336, (2-{3-[1-(3,5-dichloro-2-pyridyl)-3-isopropyl-1H-pyrazol-4-yl]propoxy}-3-methoxyphenyl)acetic acid] |  |  | 105 to 106
13 | CCc1cccc(CC(=O)O)c1OCCCc1cn(-c2ccc(C(F)(F)F)nn2)nc1C(CC)CC [Example 341, [3-ethyl-2-(3-{3-(1-ethylpropyl)-1-[6-(trifluoromethyl)pyridazin-3-yl]-1H-pyrazol-4-yl}propoxy)phenyl]acetic acid] |  |  | 93 to 94
14 | COc1cccc(CC(=O)O)c1OCCCc1cn(-c2nnc(C(F)(F)F)s2)nc1C(C)C [Example 344, [2-(3-{3-isopropyl-1-[5-(trifluoromethyl)-1,3,4-thiadiazol-2-yl]-1H-pyrazol-4-yl}propoxy)-3-methoxyphenyl]acetic acid] |  |  | 114 to 115
15 | COc1cccc(CC(=O)O)c1OCCCc1cn(-c2ccc(C(F)(F)F)cn2)nc1C(C)(C)C [Example 345, [2-(3-{3-tert-butyl-1-[5-(trifluoromethyl)-2-pyridinyl]-1H-pyrazol-4-yl}propoxy)-3-methoxyphenyl]acetic acid] |  |  | 94 to 95
16 | Cc1cccc(CC(=O)O)c1OCCCc1cn(-c2ccc(C(F)(F)F)cn2)nc1C(C)(C)C [Example 346, [2-(3-{3-tert-butyl-1-[5-(trifluoromethyl)-2-pyridinyl]-1H-pyrazol-4-yl}propoxy)-3-methylphenyl]acetic acid] |  |  | 86 to 87
17 | CCc1cccc(CC(=O)O)c1OCCCc1cn(-c2ccc(C(F)(F)F)cn2)nc1C(C)(C)C [Example 347, [2-(3-{3-tert-butyl-1-[5-(trifluoromethyl)-2-pyridinyl]-1H-pyrazol-4-yl}propoxy)-3-ethylphenyl]acetic acid] |  |  | 98 to 99
18 | CCC(CC)c1nn(-c2ccc(C(F)(F)F)cn2)cc1CCCOc1c(CC(=O)O)ccnc1C [Example 348, [3-(3-{3-(1-ethylpropyl)-1-[5-(trifluoromethyl)-2-pyridinyl]-1H-pyrazol-4-yl}propoxy)-2-methyl-4-pyridinyl]acetic acid] |  |  | 78 to 79
19 | CCC(CC)c1nn(-c2ccc(Br)cn2)cc1CCCOc1c(C)cccc1CC(=O)O [Example 353, (2-{3-[1-(5-bromo-2-pyridinyl)-3-(1-ethylpropyl)-1H-pyrazol-4-yl]propoxy}-3-methylphenyl) acetic acid] |  |  | 120 to 121
20 | CCc1cccc(CC(=O)O)c1OCCCc1cn(-c2ccc(Br)cn2)nc1C(CC)CC [Example 355, (2-{3-[1-(5-bromo-2-pyridinyl)-3-(1-ethylpropyl)-1H-pyrazol-4-yl]propoxy}-3-ethylphenyl)acetic acid] |  |  | 123
21 | CC(C)c1cccc(CC(=O)O)c1OCCCc1cn(-c2ccc(C(F)(F)F)cn2)nc1C(C)C [Example 357, [3-isopropyl-2-(3-{3-isopropyl-1-[5-(trifluoromethyl)-2-pyridinyl]-1H-pyrazol-4-yl}propoxy)phenyl]acetic acid] |  |  | 108 to 109
22 | CCCc1nn(-c2ccc(C(F)(F)F)cn2)cc1CCCOc1c(CC(=O)O)cccc1C(C)C [Example 359, [3-isopropyl-2-(3-{3-propyl-1-[5-(trifluoromethyl)-2-pyridinyl]-1H-pyrazol-4-yl}propoxy)phenyl]acetic acid] |  |  | 102 to 103
23 | COc1cccc(CC(=O)O)c1OCCCc1cn(-c2cc(C(F)(F)F)ccn2)nc1C(C)C [Example 363, [2-(3-{3-isopropyl-1-[4-(trifluoromethyl)-2-pyridinyl]-1H-pyrazol-4-yl}propoxy)-3-methoxyphenyl]acetic acid] |  |  | 127 to 128
24 | COc1cccc(CC(=O)O)c1OCCCc1cn(-c2cccc(C(F)(F)F)n2)nc1C(C)C [Example 365, [2-(3-{3-isopropyl-1-[6-(trifluoromethyl)-2-pyridinyl]-1H-pyrazol-4-yl}propoxy)-3-methoxyphenyl]acetic acid] |  |  | 95 to 97
25 | COc1cccc(CC(=O)O)c1OCCCc1cn(-c2ccc(C(F)(F)F)nn2)nc1C(C)(C)C [Example 366, [2-(3-{3-tert-butyl-1-[6-(trifluoromethyl)pyridazin-3-yl]-1H-pyrazol-4-yl}propoxy)-3-methoxyphenyl]acetic acid] |  |  | 131 to 132
26 | Cc1cccc(CC(=O)O)c1OCCCc1cn(-c2ccc(Cl)cn2)nc1C(C)(C)C [Example 371, (2-{3-[3-tert-butyl-1-(5-chloropyridin-2-yl)-1H-pyrazol-4-yl]propoxy}-3-methylphenyl)acetic acid] |  |  | 112 to 113
27 | Cc1nn(-c2ccccn2)cc1COc1ccc(CCC(=O)O)cc1 [Example 372, 3-{4-[3-methyl-1-(2-pyridinyl)-1H-pyrazol-4-ylmethoxy]phenyl}propionic acid] |  |  | 129 to 130
28 | COc1ccc(OC(C)(C)C(=O)O)cc1OCCCc1cn(-c2ccc(C(F)(F)F)cn2)nc1C(C)C [Example 376, 2-[3-(3-{3-isopropyl-1-[5-(trifluoromethyl)-2-pyridinyl]-1H-pyrazol-4-yl}propoxy)-4-methoxyphenoxy]-2-methylpropanoic acid] |  |  | 106 to 107
29 | CCc1ccc(OC(C)(C)C(=O)O)cc1OCCCc1cn(-c2ccc(C(F)(F)F)cn2)nc1C(C)C [Example 377, 2-[4-ethyl-3-(3-{3-isopropyl-1-[5-(trifluoromethyl)-2-pyridinyl]-1H-pyrazol-4-yl}propoxy)phenoxy]-2-methylpropanoic acid] |  |  | 115 to 116
